Measured values taken from patent US20020137929A1, “1 - (3-heterocyclylphenyl) isothiourea, -isourea, -guanidine and -amidine herbicidal agents” (Intellectual Property Department, BASF Aktiengesellschaft, priority 1998, published 2002).

How the values were obtained:
[1] = test system: TRZAWR (Wheat, Winter, cv Riband); experiment: Preemergence herbicidal evaluation; format: in vivo, Triticum aestivum; settings: rated 4-5 weeks after treatment
Procedure, shortened: (§1)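 Preemergence soil application of compound, sprayed in aqueous acetone at rates equivalent to about 0.0156 to 0.500 kg per hectare onto freshly sown cups. Plant response was judged by eye on a 0-9 scale four to five weeks later.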

SETVI (Foxtail, Green) [2] = experiment: Preemergence herbicidal evaluation; format: in vivo, Setaria viridis; settings: rated 4-5 weeks after treatment
Procedure, shortened: as §1

CYPSE (Flatsedge) = experiment: Preemergence weed control under flooded paddy conditions; format: in vivo, Cyperus serotinus; settings: rated 3-4 weeks after treatment
Procedure, shortened: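 Seeds or propagules sown in top 0.5 cm of silt loam soil, flooded 1.5 to 3 cm above surface throughout. Compound in 50/50 v/v aqueous/acetone pipetted into flood water at about 0.0313 to 0.500 kg/ha. Visual 0-9 rating versus control after three to four weeks in greenhouse.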

ZEAMX (Corn, Field) [3] = experiment: Preemergence herbicidal evaluation; format: in vivo, Zea mays; settings: rated 4-5 weeks after treatment
Procedure, shortened: as §1

ECHCG (Barnyardgrass) = experiment: Preemergence herbicidal evaluation; format: in vivo, Echinochloa crus-galli; settings: rated 4-5 weeks after treatment
Procedure, shortened: as §1

ORYSAT (Rice, Tebonnet) = experiment: Postemergence herbicidal evaluation; format: in vivo, Oryza sativa, (L.) Tebonnet; settings: postemergence
Procedure, shortened: (§2)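 Rate range approx. 0.0156–0.500 kg/ha. Foliar application at 40 psi to ~2-week seedlings; surfactant 0.5% TWEEN 20 in 50/50 acetone/water. Evaluation 4–5 wk post-treatment by 0–9 visual injury score, means of replicate tests.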

[4] = test system: ECHORC (Watergrass (Calif.)); experiment: Preemergence weed control under flooded paddy conditions; format: in vivo, Echinochloa oryzoides; settings: rated 3-4 weeks after treatment
Procedure, shortened: (§3)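 Flooded-pot preemergence screen with silt loam and seeds in the upper 0.5 cm. Dose about 0.0313 to 0.500 kg/ha, delivered into flood water; visual 0-9 score after 3 to 4 weeks.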

ZEAMX (Corn, Field) [5] = experiment: Postemergence herbicidal evaluation; format: in vivo, Zea mays; settings: postemergence
Procedure, shortened: as §2

SETVI (Foxtail, Green) [6] = experiment: Postemergence herbicidal evaluation; format: in vivo, Setaria viridis; settings: postemergence
Procedure, shortened: as §2

CYPIR (Rice Flatsedge) = experiment: Preemergence weed control under flooded paddy conditions; format: in vivo, Cyperus iria; settings: rated 3-4 weeks after treatment
Procedure, shortened: as §3

[7] = rate 0.0313 kg/ha, rating scale 0-9
[8] = rate 0.0625 kg/ha, rating scale 0-9
[9] = rate 0.1250 kg/ha, rating scale 0-9
[10] = rate 0.2500 kg/ha, rating scale 0-9

Compound | Preemergence herbicidal rating TRZAWR ([1]; rate 0.0156 kg/ha) | herbicidal effect rating, CYPSE (CYPSE (Flatsedge); 0.2500 kg/ha) | Herbicidal rating ORYSAT (ORYSAT (Rice, Tebonnet); rate 0.0156 kg/ha) | Herbicidal rating ORYSAT (ORYSAT (Rice, Tebonnet); rate 0.0313 kg/ha) | Herbicidal rating ORYSAT (ORYSAT (Rice, Tebonnet); rate 0.0625 kg/ha) | herbicidal effect rating, ECHORC ([4]; 0.0313 kg/ha) | herbicidal effect rating, ECHORC ([4]; 0.0625 kg/ha) | herbicidal effect rating, ECHORC ([4]; 0.1250 kg/ha) | herbicidal effect rating, ECHORC ([4]; 0.2500 kg/ha) | Herbicidal rating ZEAMX (ZEAMX (Corn, Field) [5]; rate 0.0156 kg/ha) | Herbicidal rating ZEAMX (ZEAMX (Corn, Field) [5]; rate 0.0313 kg/ha) | Herbicidal rating ZEAMX (ZEAMX (Corn, Field) [5]; rate 0.0625 kg/ha) | Herbicidal rating SETVI (SETVI (Foxtail, Green) [6]; rate 0.0156 kg/ha) | Herbicidal rating SETVI (SETVI (Foxtail, Green) [6]; rate 0.0313 kg/ha) | Herbicidal rating SETVI (SETVI (Foxtail, Green) [6]; rate 0.0625 kg/ha) | herbicidal effect rating, CYPIR (CYPIR (Rice Flatsedge); 0.0313 kg/ha) | herbicidal effect rating, CYPIR (CYPIR (Rice Flatsedge); 0.0625 kg/ha) | herbicidal effect rating, CYPIR (CYPIR (Rice Flatsedge); 0.1250 kg/ha) | herbicidal effect rating, CYPIR (CYPIR (Rice Flatsedge); 0.2500 kg/ha) | herbicidal effect rating, CYPSE (CYPSE (Flatsedge); 0.1250 kg/ha) | also measured
CCOC(=O)CN1C(=O)C(C(=O)OC)SC1=Nc1cc(-n2c(=O)cc(C(F)(F)F)n(C)c2=O)c(F)cc1Cl (stereo not drawn) [Compound 128, 5-Carboxy-2-{{2-chloro-5-[3,6-dihydro-3-methyl-2,6-dioxo-4-(trifluoromethyl)-1(2H)-pyrimidinyl]-4-fluorophenyl}imino}-4-oxo-3-thiazolidineacetic acid, 3-ethyl methyl ester] | 0.0 | 3.0 | 1.5 | 2.0 | 2.5 | 5.0 | 7.0 | 7.0 | 9.0 | 3.5 | 4.0 | 6.0 | 1.0 | 1.0 | 4.0 | 0.0 | 4.0 | 4.0 | 4.0 |  | Preemergence herbicidal rating TRZAWR ([1]; rate 0.0313 kg/ha): 0.0; Preemergence herbicidal rating TRZAWR ([1]; rate 0.0625 kg/ha): 0.0; Preemergence herbicidal rating TRZAWR ([1]; rate 0.1250 kg/ha): 0.0; Preemergence herbicidal rating TRZAWR ([1]; rate 0.2500 kg/ha): 0.0; Preemergence herbicidal rating SETVI (SETVI (Foxtail, Green) [2]; rate 0.0156 kg/ha): 0.0; Preemergence herbicidal rating SETVI (SETVI (Foxtail, Green) [2]; rate 0.0313 kg/ha): 1.0; Preemergence herbicidal rating SETVI (SETVI (Foxtail, Green) [2]; rate 0.1250 kg/ha): 1.0; Preemergence herbicidal rating SETVI (SETVI (Foxtail, Green) [2]; rate 0.2500 kg/ha): 7.0; herbicidal effect rating, CYPSE (CYPSE (Flatsedge); 0.0625 kg/ha): 0.0; Preemergence herbicidal rating ZEAMX (ZEAMX (Corn, Field) [3]; rate 0.0156 kg/ha): 0.0; Preemergence herbicidal rating ZEAMX (ZEAMX (Corn, Field) [3]; rate 0.0313 kg/ha): 0.0; Preemergence herbicidal rating ZEAMX (ZEAMX (Corn, Field) [3]; rate 0.0625 kg/ha): 0.0; Preemergence herbicidal rating ZEAMX (ZEAMX (Corn, Field) [3]; rate 0.1250 kg/ha): 0.0; Preemergence herbicidal rating ZEAMX (ZEAMX (Corn, Field) [3]; rate 0.2500 kg/ha): 0.0; Preemergence herbicidal rating ECHCG (ECHCG (Barnyardgrass); rate 0.0156 kg/ha): 0.0; Preemergence herbicidal rating ECHCG (ECHCG (Barnyardgrass); rate 0.0313 kg/ha): 0.0; Preemergence herbicidal rating ECHCG (ECHCG (Barnyardgrass); rate 0.0625 kg/ha): 0.0; Preemergence herbicidal rating ECHCG (ECHCG (Barnyardgrass); rate 0.1250 kg/ha): 0.0; Preemergence herbicidal rating ECHCG (ECHCG (Barnyardgrass); rate 0.2500 kg/ha): 2.0
Cc1ccccc1CN1C(=O)CSC1=Nc1cc(-n2c(=O)cc(C(F)(F)F)n(C)c2=O)c(F)cc1Cl [Compound 129, 3-{4-Chloro-2-fluoro-5-{[3-(o-methylbenzyl)-4-oxo-2-thiazolidinylidene]amino}phenyl}-1-methyl-6-(trifluoromethyl)-2,4 (1H,3H)-pyrimidinedione] | 0.0 | 9.0 | 2.5 | 3.5 | 3.0 | 9.0 | 9.0 | 9.0 | 9.0 | 4.0 | 4.5 | 4.5 | 2.0 | 3.0 | 5.0 | 4.0 | 5.0 | 7.0 | 9.0 | 7.0 | Preemergence herbicidal rating TRZAWR ([1]; rate 0.0313 kg/ha): 0.0; Preemergence herbicidal rating TRZAWR ([1]; rate 0.0625 kg/ha): 0.0; Preemergence herbicidal rating TRZAWR ([1]; rate 0.1250 kg/ha): 1.0; Preemergence herbicidal rating TRZAWR ([1]; rate 0.2500 kg/ha): 1.0; Preemergence herbicidal rating SETVI (SETVI (Foxtail, Green) [2]; rate 0.0156 kg/ha): 1.0; Preemergence herbicidal rating SETVI (SETVI (Foxtail, Green) [2]; rate 0.0313 kg/ha): 1.0; Preemergence herbicidal rating SETVI (SETVI (Foxtail, Green) [2]; rate 0.0625 kg/ha): 1.0; Preemergence herbicidal rating SETVI (SETVI (Foxtail, Green) [2]; rate 0.1250 kg/ha): 6.0; Preemergence herbicidal rating SETVI (SETVI (Foxtail, Green) [2]; rate 0.2500 kg/ha): 7.0; Preemergence herbicidal rating ZEAMX (ZEAMX (Corn, Field) [3]; rate 0.0156 kg/ha): 0.0; Preemergence herbicidal rating ZEAMX (ZEAMX (Corn, Field) [3]; rate 0.0313 kg/ha): 0.0; Preemergence herbicidal rating ZEAMX (ZEAMX (Corn, Field) [3]; rate 0.0625 kg/ha): 0.0; Preemergence herbicidal rating ZEAMX (ZEAMX (Corn, Field) [3]; rate 0.1250 kg/ha): 1.0; Preemergence herbicidal rating ZEAMX (ZEAMX (Corn, Field) [3]; rate 0.2500 kg/ha): 1.0; Preemergence herbicidal rating ECHCG (ECHCG (Barnyardgrass); rate 0.0156 kg/ha): 0.0; Preemergence herbicidal rating ECHCG (ECHCG (Barnyardgrass); rate 0.0313 kg/ha): 0.0; Preemergence herbicidal rating ECHCG (ECHCG (Barnyardgrass); rate 0.0625 kg/ha): 0.0; Preemergence herbicidal rating ECHCG (ECHCG (Barnyardgrass); rate 0.1250 kg/ha): 1.0; Preemergence herbicidal rating ECHCG (ECHCG (Barnyardgrass); rate 0.2500 kg/ha): 0.0
Cn1c(C(F)(F)F)cc(=O)n(-c2cc(N=C3SCC(=O)N3Cc3ccccn3)c(Cl)cc2F)c1=O [Compound 131] |  | 0.0 | 2.0 | 2.5 | 3.0 |  |  | 2.0 | 4.0 | 4.5 | 4.5 | 4.5 | 3.0 | 4.0 | 5.0 |  |  | 0.0 | 4.0 | 0.0 | Preemergence herbicidal rating TRZAWR [1, 7]: 0.0; Preemergence herbicidal rating TRZAWR [1, 8]: 0.0; Preemergence herbicidal rating TRZAWR [1, 9]: 0.0; Preemergence herbicidal rating TRZAWR [1, 10]: 0.0; Preemergence herbicidal rating SETVI (SETVI (Foxtail, Green) [2]; [7]): 0.0; Preemergence herbicidal rating SETVI (SETVI (Foxtail, Green) [2]; [8]): 0.0; Preemergence herbicidal rating SETVI (SETVI (Foxtail, Green) [2]; [9]): 0.0; Preemergence herbicidal rating SETVI (SETVI (Foxtail, Green) [2]; [10]): 3.0; Preemergence herbicidal rating ZEAMX (ZEAMX (Corn, Field) [3]; [7]): 0.0; Preemergence herbicidal rating ZEAMX (ZEAMX (Corn, Field) [3]; [8]): 0.0; Preemergence herbicidal rating ZEAMX (ZEAMX (Corn, Field) [3]; [9]): 0.0; Preemergence herbicidal rating ZEAMX (ZEAMX (Corn, Field) [3]; [10]): 0.0; Preemergence herbicidal rating ECHCG (ECHCG (Barnyardgrass); [7]): 0.0; Preemergence herbicidal rating ECHCG (ECHCG (Barnyardgrass); [8]): 0.0; Preemergence herbicidal rating ECHCG (ECHCG (Barnyardgrass); [9]): 0.0; Preemergence herbicidal rating ECHCG (ECHCG (Barnyardgrass); [10]): 2.0
Cn1c(C(F)(F)F)cc(=O)n(-c2cc(N=C3SCC(=O)N3Cc3cccnc3)c(Cl)cc2F)c1=O [Compound 132, 3-{4-Chloro-2-fluoro-5-{[4-oxo-3-(3-pyridylmethyl)-2-thiazolidinylidene]amino}phenyl}-1-methyl-6-(trifluoromethyl)-2,4 (1H,3H)-pyrimidinedione] |  | 0.0 | 2.0 | 3.0 | 3.5 | 3.0 | 4.0 | 4.0 | 6.0 | 3.5 | 4.0 | 4.5 | 1.0 | 4.0 | 3.0 | 0.0 | 0.0 | 0.0 | 3.0 | 0.0 | Preemergence herbicidal rating TRZAWR [1, 8]: 0.0; Preemergence herbicidal rating TRZAWR [1, 9]: 0.0; Preemergence herbicidal rating TRZAWR [1, 10]: 1.0; Preemergence herbicidal rating SETVI (SETVI (Foxtail, Green) [2]; [8]): 0.0; Preemergence herbicidal rating SETVI (SETVI (Foxtail, Green) [2]; [9]): 3.0; Preemergence herbicidal rating SETVI (SETVI (Foxtail, Green) [2]; [10]): 9.0; herbicidal effect rating, CYPSE (CYPSE (Flatsedge); 0.0313 kg/ha): 0.0; herbicidal effect rating, CYPSE (CYPSE (Flatsedge); 0.0625 kg/ha): 0.0; Preemergence herbicidal rating ZEAMX (ZEAMX (Corn, Field) [3]; [8]): 0.0; Preemergence herbicidal rating ZEAMX (ZEAMX (Corn, Field) [3]; [9]): 0.0; Preemergence herbicidal rating ZEAMX (ZEAMX (Corn, Field) [3]; [10]): 2.0; Preemergence herbicidal rating ECHCG (ECHCG (Barnyardgrass); [8]): 0.0; Preemergence herbicidal rating ECHCG (ECHCG (Barnyardgrass); [9]): 0.0; Preemergence herbicidal rating ECHCG (ECHCG (Barnyardgrass); [10]): 7.0
